Experimental data as given in patent US4742045A, “Glycopeptide antibiotics” (SmithKline Beckman Corporation, priority 1986, dated 1988).

Experiments:
S. faecalis = assay: mice infected intraperitoneally, dosed 1 hr after infection, ED50; type: in vivo
Method: (§1) The in vivo activity of the CWI-785 complex and its components and hydrolysis products was confirmed by administering selected CWI-785 antibiotics to mice infected with various gram-positive pathogens. In one representative assay, in which mice infected intraperitoneally with 46.8 LD50 's of S. aureus (strain 1, Tables 1 and 2) were dosed once, subcutaneously one hour after infection, the following ED50 's (mg/kg) were observed: CWI-785B: 2.4, CWI-785C: 3.1, CWI-785: 3.8, HPB3: 0.9, vancomycin: 0.7. In a second representative assay carried out as above except that mice were infected with 3.17 LD50 's of S. faecalis (strain 9, Table 2), the following ED50 's were observed: HPB3 hydrochloride: 1.6, HPB4 hydrochloride: 1.6, vancomycin: 2.2, teicoplanin: 1.3.
(§2) In Table 6, below, is shown the ED50 in mg/kg of HPB4 in comparison to vancomycin and teicoplanin. Mice were injected i.p. with the indicated organism and then i.v., 1 hr post infection, with the indicated antibiotic.

S. aureus = assay: as above; type: in vivo; details: antibiotic i.v. 1 hr post infection
Method: as §1, §2

STAPH. AUREUS HH 127 = assay: prophylactic activity, dosing preinfection; type: in vivo, mice
S. epidermidis = assay: mice infected i.p., antibiotic i.v. 1 hr post infection, ED50; type: in vivo; details: S. epidermidis 2479 (>1000 × LD50) i.p., antibiotic i.v. 1 hr post infection
Method: as §2

Streptococcus faecalis = assay: standard microtiter assay, minimum inhibitory concentration; type: cell-based
How it was run: (§3)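 Standard microtiter broth assays, with MIC reported in μg/ml and averaged over several strains per species. The CWI-785 complex was tested, in some cases as HCl salts. Some runs used no serum, 50% human serum or 50% mouse serum.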

Staphylococcus aureus = assay: as above; type: cell-based; details: for MIC: Table 5 organism 1 S. aureus
How it was run: as §3

Streptococcus pyogenes = assay: as above; type: cell-based; details: Table 2 test organism 11, Streptococcus pyogenes
Text: Representative results of standard microtiter assays are reported in Tables 1, 2 and 3 which follow, as the minimum inhibitory concentration of antibiotic (μg/ml).
In Table 1, test organisms 1-13 were different strains of Staphylococcus aureus, and 14-16 were different strains of Staphylococcus epidermidis. In Table 2, test organisms 1-5 were different strains of S. aureus; 6, 8, 12 and 14 were different strains of S. epidermidis; 7 was a Staphylococcus haemolyticus; 9 and 10 were different strains of Streptococcus faecalis; 11 was a Streptococcus pyogenes; and 13 was a Staphylococcus saprophyticus. In Table 3, test organisms 1-3 were different strains of S. aureus; 4 and 6 were different strains of S. epidermidis; 5 was a S. haemolyticus and 7 and 8 were different strains of Streptococcus faecalis. Except where individual components are indicated, the CWI-785 antibiotic employed was the CWI-785 complex; in some cases, HCl salts of the CWI-785 antibiotic were employed.

[1] = tested on: Staphylococcus haemolyticus; assay: as above; type: cell-based; details: for MIC: Table 5 organism 3 S. haemolyticus
How it was run: (§4)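 Broth microtiter MIC (μg/ml) of CWI-785 antibiotic, as complex, individual components or HCl salts, against several staphylococcal strains. Some assays run without serum or in 50% human or 50% mouse serum.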

[2] = tested on: Staphylococcus epidermidis; assay: as above; type: cell-based
How it was run: as §4

[3] = tested on: Staphylococcus saprophyticus; assay: as above; type: cell-based; details: for MIC: Table 5 organism 6 S. saprophyticus
How it was run: as §4

Group B Strep. = assay: MIC against an expanded panel; type: cell-based; details: Table 4, Group B Strep. (4 strains)
Text: (§5) The number of strains tested is shown in parentheses below each organism. The average MIC is reported in μg/ml.

JK Diptheroids = assay: MIC against an expanded panel; type: cell-based; details: Table 4, JK Diptheroids (19 strains)
Text: as §5

Group A Strep. = assay: MIC against an expanded panel; type: cell-based; details: Table 4, Group A Strep. (6 strains)
Text: as §5

Viridans = assay: MIC against an expanded panel; type: cell-based; details: Table 4, Viridans (2 strains)
Text: as §5

Coag-neg. Staphylococci = assay: MIC against an expanded panel; type: cell-based; details: Table 4, Coag-neg. Staphylococci (24 strains)
Text: as §5

[4] = Table 4, Strep. faecalis (12 strains)
[5] = Table 4, S. aureus (30 strains)

Substance: teicoplanin
- ED50 (S. faecalis; S. faecalis 34358 (9 × LD50) i.p., antibiotic i.v. 1 hr post infection): 1.7 mg/kg
- ED50 (S. faecalis; mice infected with 3.17 LD50's of S. faecalis (strain 9, Table 2), dosed once subcutaneously one hour after infection): 1.3 mg/kg
- ED50 (S. aureus; S. aureus 2620 (24 × LD50) i.p.): 6.0 mg/kg
- ED50 (S. aureus; S. aureus HH 127 (35 × LD50) i.p.): 2.5 mg/kg
- ED50 (STAPH. AUREUS HH 127; Table 8, vs Staph. aureus HH 127 (I.V.)): 0.405 mg/kg
- PERCENT SURVIVAL (STAPH. AUREUS HH 127; Table 8: 40 mg/kg (I.V.), 6 hr preinfection): 100%
- ED50 (S. epidermidis): < 1.25 mg/kg
- minimum inhibitory concentration (Streptococcus faecalis; Table 2 test organism 9, Streptococcus faecalis strain): < 0.1 µg/mL
- minimum inhibitory concentration (Streptococcus faecalis; Table 2 test organism 10, Streptococcus faecalis strain): < 0.1 µg/mL
- MIC50 (Streptococcus faecalis; [4]): <= 0.1 μg/ml
- MIC RANGE (Streptococcus faecalis; [4]): <=0.1-0.2 μg/ml
- MBC50 (Streptococcus faecalis; Table 4, Strep. faecalis MBC50): 6.3 µg/mL
- MBC RANGE (Streptococcus faecalis; Table 4, Strep. faecalis MBC50 column): 1.6 to 25 µg/mL
- MIC (Streptococcus faecalis; Table 5 organism 7 S. faecalis, 50% Hum. Serum): 6.3 µg/mL
- MIC (Streptococcus faecalis; Table 5 organism 7 S. faecalis, 50% Mse. Serum): 1.6 µg/mL
- MIC (Streptococcus faecalis; Table 5 organism 7 S. faecalis, No Serum): <= 0.1 μg/ml
- MIC (Streptococcus faecalis; Table 5 organism 8 S. faecalis, 50% Hum. Serum): 6.3 µg/mL
- MIC (Streptococcus faecalis; Table 5 organism 8 S. faecalis, 50% Mse. Serum): 3.1 µg/mL
- MIC (Streptococcus faecalis; Table 5 organism 8 S. faecalis, No Serum): <= 0.1 μg/ml
- minimum inhibitory concentration (Staphylococcus aureus; Table 1 test organism 1, S. aureus strain): 1.6 µg/mL
- minimum inhibitory concentration (Staphylococcus aureus; Table 1 test organism 2, S. aureus strain): 1.6 µg/mL
- minimum inhibitory concentration (Staphylococcus aureus; Table 1 test organism 3, S. aureus strain): 3.1 µg/mL
- minimum inhibitory concentration (Staphylococcus aureus; Table 1 test organism 4, S. aureus strain): 1.6 µg/mL
- minimum inhibitory concentration (Staphylococcus aureus; Table 1 test organism 5, S. aureus strain): 1.6 µg/mL
- minimum inhibitory concentration (Staphylococcus aureus; Table 1 test organism 6, S. aureus strain): 1.6 µg/mL
- minimum inhibitory concentration (Staphylococcus aureus; Table 1 test organism 7, S. aureus strain): 3.1 µg/mL
- minimum inhibitory concentration (Staphylococcus aureus; Table 1 test organism 8, S. aureus strain): 6.3 µg/mL
- minimum inhibitory concentration (Staphylococcus aureus; Table 1 test organism 9, S. aureus strain): 6.3 µg/mL
- minimum inhibitory concentration (Staphylococcus aureus; Table 1 test organism 10, S. aureus strain): 6.3 µg/mL
- minimum inhibitory concentration (Staphylococcus aureus; Table 1 test organism 11, S. aureus strain): 3.1 µg/mL
- minimum inhibitory concentration (Staphylococcus aureus; Table 1 test organism 12, S. aureus strain): 3.1 µg/mL
- minimum inhibitory concentration (Staphylococcus aureus; Table 1 test organism 13, S. aureus strain): 0.8 µg/mL
- minimum inhibitory concentration (Staphylococcus aureus; Table 2 test organism 1, S. aureus strain): 3.1 µg/mL
- minimum inhibitory concentration (Staphylococcus aureus; Table 2 test organism 2, S. aureus strain): 0.8 µg/mL
- minimum inhibitory concentration (Staphylococcus aureus; Table 2 test organism 3, S. aureus strain): 0.4 µg/mL
- minimum inhibitory concentration (Staphylococcus aureus; Table 2 test organism 4, S. aureus strain): 3.1 µg/mL
- minimum inhibitory concentration (Staphylococcus aureus; Table 2 test organism 5, S. aureus strain): 1.6 µg/mL
- MIC50 (Staphylococcus aureus; [5]): 3.1 µg/mL
- MIC RANGE (Staphylococcus aureus; [5]): 1.6 to 6.3 µg/mL
- MIC (Staphylococcus aureus; 50% Hum. Serum): 6.3 µg/mL
- MIC (Staphylococcus aureus; 50% Mse. Serum): 25.0 µg/mL
- MIC (Staphylococcus aureus; No Serum): 3.1 µg/mL
- minimum inhibitory concentration (Streptococcus pyogenes): 0.2 µg/mL
- minimum inhibitory concentration ([1]; Table 2 test organism 7, Staphylococcus haemolyticus): 12.5 µg/mL
- MIC ([1]; 50% Hum. Serum): 50.0 µg/mL
- MIC ([1]; 50% Mse. Serum): 50.0 µg/mL
- MIC ([1]; No Serum): 12.5 µg/mL
- minimum inhibitory concentration ([2]; Table 1 test organism 14, S. epidermidis strain): 1.6 µg/mL
- minimum inhibitory concentration ([2]; Table 1 test organism 15, S. epidermidis strain): 12.5 µg/mL
- minimum inhibitory concentration ([2]; Table 1 test organism 16, S. epidermidis strain): 6.3 µg/mL
- minimum inhibitory concentration ([2]; Table 2 test organism 6, S. epidermidis strain): 12.5 µg/mL
- minimum inhibitory concentration ([2]; Table 2 test organism 8, S. epidermidis strain): 12.5 µg/mL
- minimum inhibitory concentration ([2]; Table 2 test organism 12, S. epidermidis strain): 12.5 µg/mL
- minimum inhibitory concentration ([2]; Table 2 test organism 14, S. epidermidis strain): 3.1 µg/mL
- MIC ([2]; Table 5 organism 2 S. epidermidis, 50% Hum. Serum): 50.0 µg/mL
- MIC ([2]; Table 5 organism 2 S. epidermidis, 50% Mse. Serum): 50.0 µg/mL
- MIC ([2]; Table 5 organism 2 S. epidermidis, No Serum): 12.5 µg/mL
- MIC ([2]; Table 5 organism 4 S. epidermidis, 50% Hum. Serum): 50.0 µg/mL
- MIC ([2]; Table 5 organism 4 S. epidermidis, 50% Mse. Serum): 25.0 µg/mL
- MIC ([2]; Table 5 organism 4 S. epidermidis, No Serum): 12.5 µg/mL
- MIC ([2]; Table 5 organism 5 S. epidermidis, 50% Hum. Serum): > 100 µg/mL
- MIC ([2]; Table 5 organism 5 S. epidermidis, 50% Mse. Serum): <= 0.1 μg/ml
- MIC ([2]; Table 5 organism 5 S. epidermidis, No Serum): 12.5 µg/mL
- minimum inhibitory concentration ([3]; Table 2 test organism 13, Staphylococcus saprophyticus): 1.6 µg/mL
- MIC ([3]; 50% Hum. Serum): 12.5 µg/mL
- MIC ([3]; 50% Mse. Serum): 1.6 µg/mL
- MIC ([3]; No Serum): 1.6 µg/mL
- MIC RANGE (Group B Strep.): 0.1 to 1.6 µg/mL
- MIC50 (JK Diptheroids): 1.6 µg/mL
- MIC RANGE (JK Diptheroids): 0.2 to 3.1 µg/mL
- MIC50 (Group A Strep.): <= 0.025 μg/ml
- MIC RANGE (Group A Strep.): <0.025 to 0.4 µg/mL
- MIC RANGE (Viridans): 0.05 to 0.1 µg/mL
- MIC50 (Coag-neg. Staphylococci): 12.5 µg/mL
- MIC RANGE (Coag-neg. Staphylococci): 0.8 to 25 µg/mL
